Data reported in patent US20250163016A1, “PYRIDINE DERIVATIVE, PREPARATION METHOD THEREFOR AND USE THEREOF” (CHENGDU EASTON BIOPHARMACEUTICALS CO., LTD., priority 2022, published 2025).

What was measured:
LSD1 = molecular target: T1, LSD1 (Homo sapiens, UniProt O60341); assay: LSD1 activity test (HTRF); format: biochemical; settings: H3(1-21)K4 me1-biotin substrate, read-out: IC50, inhibitory activity on LSD1
T1 construct: purchased Active Motif 31432
Description: In this test, a homogeneous time resolved fluorescence (HTRF) technology was utilized, and the inhibitory activity of compounds on LSD1 was detected by adopting a two-step method. The first step was to incubate LSD1, compounds of different concentrations, and a biotin-labeled methylated polypeptide substrate (H3(1-21)K4 me1-biotin) at the room temperature for fixed time.
A corresponding solution with a 1000-fold final concentration was formed by dilution in a 384-well Source plate, and then Echo550 was used for transferring 10 nL to a 384-well reaction plate for being tested.
An inhibition percentage was calculated using a maximum value, a minimum value, and a signal value (maximum value: fluorescence intensity of 5 μL of 2× enzyme solution+5 μL of 2× substrate mixed solution+10 nL of 100% DMSO+10 μL of detection solution; minimum value: fluorescence intensity of 5 μL of 1× reaction solution+5 μL of 2× substrate mixed solution+10 nL of 100% DMSO+10 μL of detection solution; and signal value: fluorescence intensity of 5 μL of 2× enzyme solution+5 μL of 2× substrate mixed solution+10 nL of diluted compound to be tested+10 μL of detection solution), and a calculation formula was as follows: […]
(§1) Using a logarithm of the concentration as an X axis and the percentage inhibition rate as a Y axis, a dose-response curve was fitted using a formula log(inhibitor) vs. response-Variable slope (Four parameters) of analysis software Graphpad Prism 5 to obtain the IC50 value of each compound on the enzyme activity.

Kasumi-1 cells = assay: Kasumi-1 cell proliferation inhibition test (Celltiter GLO); format: cell-based; settings: Homo sapiens, 168 h, Kasumi-1, 7 days culture
Description: (§2) Research had confirmed that LSD1 played a crucial role in the occurrence process of various types of cancers, including small cell lung cancer (SCLC) and acute myeloid leukemia (AML). Therefore, a human acute myeloid leukemia (Kasumi-1) cell line was used to determine the ATP content in cells at different drug concentrations using a Celltiter GLO assay kit, the cell activity was reflected by luminescence intensity, and IC50 values of different compounds on Kasumi-1 cells were calculated using inhibition rates. The inhibitory effects of the compounds in the present application on the proliferation of Kasumi-1 cells were studied to evaluate the anti-tumor efficacy of the tested compounds at the cellular level.
(§3) • Day 1 Cells were seeded into the 384-well cell culture plate and placed in a 37° C. 5% CO2 cell incubator to be cultured overnight. • Day 0 The compound to be tested was prepared into a 10 mM mother liquid using DMSO, starting from 1 M, diluted by 3 folds, with 10 concentration points and double duplicate wells. A diluted compound was added into the 384-well cell culture plate and placed in a 37° C. 5% CO2 cell incubator to be cultured for 7 days. The concentration of the DMSO in a cell culture system was 0.1 vol %. • Day 7 Celltiter GLO was added into the 384-well cell culture plate according to a volume ratio of culture system:Celltiter GLO=1:1, light-shielded oscillation was carried out on a plate oscillator for 3 min, then the cell culture plate was placed at the room temperature for 30 min with light shielded, and the plate was read using a multifunctional microplate reader chemical light emitting module.
An inhibition rate was calculated by utilizing luminescence intensity of the above DMSO group (with DMSO added), test group (with the tested compound or a positive control solution added) and blank group (not treating cells), and a calculation formula was as follows: […]
as §1, with “Prism 8” for “Prism 5”, “on Kasumi-1 proliferation inhibition” for “on the enzyme”

NCI-H1417 cells = assay: NCI-H1417 cell proliferation inhibition test (Celltiter GLO); format: cell-based; settings: Homo sapiens, 168 h, NCI-H1417, 7 days culture
Description: as §2, with “small cell lung cancer (NCI-H1417)” for “acute myeloid leukemia (Kasumi-1)”, “kit, and” for “kit,”, “intensity.” for “intensity, and”, “the NCI-H1417” for “Kasumi-1”
as §3, with “μM,” for “M,”, “0.1%.” for “0.1 vol %.”
An inhibition percentage was calculated by utilizing luminescence intensity of the above DMSO group (with DMSO added), test group (with the tested compound and a positive control solution added) and blank group (not treating cells), a calculation formula being
as §1, with “Prism 8” for “Prism 5”, “on NCI-H1417 proliferation inhibition” for “on the enzyme”

[1] = Pharmacokinetics of oral administration of rats; format: in vivo; settings: male, rat, SD rats, p.o. 5.0 mg/kg, plasma
Description: With SD rats as tested animals, blood drug concentrations in plasma at different moments after oral administration of the compounds of the present application by the rats in a clarification kit mode were determined using an LC-MS/MS method. Pharmacokinetic parameters of the compounds of the present application in the rats were obtained, and pharmacokinetic characteristics of the compounds were studied.
• SD rats, male, weight 180-220 g, 3 rats per group. The animals were fed in an animal house after being purchased, an adaptation period was at least 3 days, and they were used for tests after passing quarantine.
According to Table 4, each group of rats was given the corresponding tested drugs or positive drugs by gavage, before administration, and 15 min, 30 min, 1 h, 2 h, 4 h, 6 h, 8 h, and 24 h after administration, a fixed volume of blood was collected through eye sockets and placed in an EDTA-K2 anticoagulant tube, centrifuging was carried out at 8000 rpm for 1 min to separate plasma into a centrifuge tube, and the plasma was frozen in a −20° C. refrigerator.
The plasma at each time point stored at −20° C. was taken out, then acetonitrile was added, after whirling at 1500 revolutions for 2 min, centrifuging was carried out for 15 min (3500 r/min), and a fixed volume of solution supernatant was taken for LC-MS/MS analysis.
Non-compartment model fitting was carried out on pharmacokinetic behaviors of the tested compounds, and DAS3.31 software was adopted to calculate main pharmacokinetic parameters (T1/2, Tmax, Cmax, AUClast, etc.).

| SMILES | IC50 (LSD1) [nM] | IC50 (Kasumi-1 cells) [nM] | IC50 (NCI-H1417 cells) [nM] | AUC(0-t) [1] [ng·h/mL] | Cmax [1] [ng/mL] | Tmax [1] [h] | half-life [1] [h] |
| --- | --- | --- | --- | --- | --- | --- | --- |
| Cn1ncc2cc(-c3c(C#N)cc(N4CCC(N)CC4)nc3-c3ccc(C#N)c(F)c3)ccc21 [Compound 4, 6-(4-aminopiperid-1-yl)-2-(4-cyano-3-fluorophenyl)-3-(1-methyl-1H-indazol-5-yl)isonicotinonitrile] | 0.47 | 3.07 | 16.7 | 712 ± 89.3 | 55 ± 7.72 | 6 | 5.31 ± 0.24 |
| CN1C(=O)Cc2cc(-c3c(C#N)cc(N4CCC(N)CC4)nc3-c3ccc(C#N)c(F)c3)ccc21 [Compound 18, 6-(4-aminopiperid-1-yl)-2-(4-cyano-3-fluorophenyl)-3-(1-methyl-2-oxoindol-5-yl)isonicotinonitrile] | 1.5 | 8.79 | 33.3 | 591 ± 292 | 77.2 ± 32.1 | 4 | 2.94 ± 0.11 |
| CC(C)(O)Cn1ncc2cc(-c3c(C#N)cc(N4CCCNCC4)nc3-c3ccc(C#N)c(F)c3)c(F)cc21 [Compound 21, 2-(4-cyano-3-fluorophenyl)-6-(1,4-diazaniline-1-yl)-3-(6-fluoro-1-(2-hydroxyl-2-methylpropyl)-1H-indazol-5-yl)isonicotinonitrile] | 0.79 | 1.03 | 6.51 | 721 ± 125 | 81.4 ± 17 | 4.67 ± 1.15 | 2.84 ± 0.59 |
